Source: US12391646B2, “Using adiponectin receptor agonists to treat inflammation and bone diseases in diabetes” (Trustees of Tufts College, priority 2020, dated 2025)

Assays:
[1] = test system: LPS-stimulated Raw264.7 cells; assay: mRNA microarray analysis of LPS-stimulated Raw264.7 cells; type: cell-based
Description: FIG. 2 AdipoAI suppresses LPS-stimulated inflammatory responses in macrophages. (a) Raw264.7 cells or (b) BMMs were pretreated with APR (20 μM) or AdipoAI (5 μM) for 24 h followed by incubation with LPS (100 ng/mL) for additional 6 h for the measurement of IL-6 and IL-1β in supernatants by ELISA. Data were expressed as the mean±SEM at five biological independent experiments. One-way ANOVA test for multiple-group comparisons, * vs. LPS group, *P<0.05, significant differences between each indicated group. (c) PEMs were isolated from C57BL/6J mice (n=5 mice/group) were injected i.p. with ImL 4% thioglycolate solution or AdipoAI (25 mg/kg) for the measurement of IL-6 and IL-1β. The amounts of IL-6 and IL-1β in supernatant were measured by ELISA. Data were expressed as the mean±SEM (n=5). Two-tailed Student's t-test for two groups, *P<0.05, significant differences between each indicated group. (d-f) Impact of AdipoAI on basal (d) and LPS-induced expression of an array of proinflammatory cytokines, chemokines, and receptors (e,f) in Raw264.7 cells (4 groups and 3 biological replicates/group). Data analyses were performed according to the manufacturer's instructions with their web-based software package (www.qiagen.com/us/shop/genes-and-pathways/data-analysis-center overview-page/). (g) Differentiated expressed genes annotated to a gene-ontology term and example genes by gene-ontology-enrichment analysis of each component. (brown: LPS vs control; black: AdipoAI+LPS vs LPS). (h) Differentially expressed M1 and M2 genes are shown according to the microarray databases. […]
FIG. 7 AdipoAI regulated methylation level of the c-Maf gene promoter to suppress c-Maf activation in LPS-induced macrophages. […] (b) mRNA levels of c-Maf were determined by qPCR in Raw264.7 cells, BMMs and PEMs treated with AdiopoAI or LPS. Data were expressed as the mean±SEM at five […] biological independent experiments. […] (c) c-Maf mRNA expression levels in lung, spleen, liver and WAT of LPS-induced endotoxemia mice were measured by qRT-PCR and normalized with GAPDH mRNA levels. Data are expressed as mean±SEM (n=6). […]

[2] = test system: mice with LPS-induced endotoxemia; assay: LPS-induced endotoxemia in WT mice; type: in vivo, C57BL/6 mice
Description: FIG. 4 AdipoAI protects against LPS-induced endotoxemia. Endotoxemia was induced in WT mice by intraperitoneal injection with LPS ([…]), and control littermates were administered with equivalent volumes of PBS. APR or AdipoAI were orally gavaged into mice for 24 hours before LPS challenge and control animals were administered with equivalent volumes of DMSO. (a) mRNA expression levels of pro-inflammatory cytokines in lung, spleen, liver and WAT were measured by qRT-PCR and normalized with GAPDH mRNA levels. Data are shown as mean±SEM (n=6). (b) Survival curve of mice with endotoxemia (n=12). (c) Serum levels of IL-6 and IL-1β were measured by ELISA. Data are expressed as mean±SEM (n=6). (d) Histopathology for lung, spleen, liver and WAT tissues isolated from APR- or AdipoAI-treated mice 24 h before LPS challenge (n=6). Upper panel: Hematoxylin and cosin staining; Lower panel: Immunohistochemical staining for macrophage marker F4/80. Red arrow indicates F4/80 positive cells. One-way ANOVA test for multiple-group comparisons, * vs. DMSO+PBS group, # vs. DMSO+LPS group. */#P<0.05, significant differences between each indicated group. ns, not significant.
The Ethics Committee on the Use and Care of Animals at Tufts University approved the study protocol (Boston, MA, USA). The animals received humane care according to the criteria outlined in the Guide for the Care and Use of Laboratory Animals prepared by the National Academy of Sciences and published by the National Institutes of Health. All experiments involving animals or animal tissue are reported in compliance with the guidelines of ARRIVE and BJP (Kilkenny et al., 2010; McGrath and Lilley, 2015). Experimental protocols and design adhere to BJP guidelines (Curtis et al., 2015). Wild-type (WT, C57BL/6J, Jax #000664), DIO (Jax #380050), and APN KO (Jax #008195) mice were purchased from the Jackson Laboratory. The DIO mice were fed with a high-fat diet (containing 60% kcal from fat; Jackson Laboratory) at 6 weeks of age and later. The WT mice were fed with ordinary diet as normal chow (NC)-fed mice, and APN KO mice were maintained and fed with an NC diet as previously described (Tu et al., 2011). For the LPS-induced endotoxemia model, male C57BL/6 mice aged 8 weeks received oral gavage with APR (50 mg/kg body weight) or AdipoAI (25 mg/kg body weight) for 24 h before by LPS (20 mg/kg body weight) treatment which was administered intraperitoneally whereas control animals were treated with equivalent volumes of normal PBS. Mouse survival in each group was monitored and recorded up to 84 h. All mice were killed at 1 h for detection of activation of inflammatory genes, at 6 h for determination of inflammatory factors in serum, and at 24 h for histological evaluation. Animal data were excluded from experiments based on pre-established criteria of visible abnormal tissue structure during sample harvest or other health issues, including fighting wounds.

SMILES: COc1ccc(CN2CCC(NC(=O)COc3ccc(C(=O)c4ccc(Cl)cc4)cc3)CC2)cc1 [Compound 3]
- expression of M1 or M2 macrophage-related genes ([1]; LPS-induced Raw264.7 cells): did not alter the expression of M1 or M2 macrophage-related genes
- expression of proinflammatory cytokines, chemokines and receptors (microarray) ([1]; LPS-stimulated Raw264.7 cells): decreased the expression of the same genes to near basal levels
- c-Maf mRNA levels (microarray) ([1]; LPS-treated Raw264.7 cells): inhibited
- serum levels of IL-6 and IL-1β ([2]; 6 h post-LPS administration): reduced serum levels of pro-inflammatory cytokines IL-6 and IL-1β
- lung histopathology ([2]; 24 h, LPS-challenged mice): fewer lung lesions and decreased inflammatory cell infiltration
- survival rate ([2]; 84 h post-LPS challenge, vehicle 12.5%): 40%
- LPS-induced spleen, liver and WAT injury and inflammatory responses ([2]; LPS-challenged mice): alleviated
- c-Maf mRNA and protein levels in lung, spleen, liver and WAT ([2]; LPS-challenged mice, qPCR and IHC): decreased
- expression of TNF-α in tissues ([2]; LPS-induced endotoxemia mice (sentence also covers DIO mice)): did not inhibit the expression of TNF-α
- mRNA levels of proinflammatory genes in lung, spleen, WAT, liver ([2]; oral gavage 24 h before LPS challenge): decreased mRNA levels of proinflammatory genes
